The source made the active and inactive calls. No cut-off for these calls is given here.
Assays:
Mus musculus [1] = experiment: Antiinflammatory activity in DSS-induced colitis C57BL/6J mouse model assessed as decrease in disease activity index at 50 to 100 mg/kg, po; assay type: functional, organism-based; conditions: dose 50-100 mg/kg
[2] = biological target: Serine/threonine-protein kinase SIK2 (Mus musculus) (UniProt Q8CFH6); experiment: Inhibition of SIK2 in C57BL/6J mouse BMDM cells assessed as increase in IL-10 mRNA level at 500 nM preincubated for 1 hr followed by LPS stimulation measured for 1 hr by qPCR analysis; assay type: cell-based; conditions: time 2.0 hrs
Sequence of Serine/threonine-protein kinase SIK2 (Mus musculus) (Q8CFH6 whole entry): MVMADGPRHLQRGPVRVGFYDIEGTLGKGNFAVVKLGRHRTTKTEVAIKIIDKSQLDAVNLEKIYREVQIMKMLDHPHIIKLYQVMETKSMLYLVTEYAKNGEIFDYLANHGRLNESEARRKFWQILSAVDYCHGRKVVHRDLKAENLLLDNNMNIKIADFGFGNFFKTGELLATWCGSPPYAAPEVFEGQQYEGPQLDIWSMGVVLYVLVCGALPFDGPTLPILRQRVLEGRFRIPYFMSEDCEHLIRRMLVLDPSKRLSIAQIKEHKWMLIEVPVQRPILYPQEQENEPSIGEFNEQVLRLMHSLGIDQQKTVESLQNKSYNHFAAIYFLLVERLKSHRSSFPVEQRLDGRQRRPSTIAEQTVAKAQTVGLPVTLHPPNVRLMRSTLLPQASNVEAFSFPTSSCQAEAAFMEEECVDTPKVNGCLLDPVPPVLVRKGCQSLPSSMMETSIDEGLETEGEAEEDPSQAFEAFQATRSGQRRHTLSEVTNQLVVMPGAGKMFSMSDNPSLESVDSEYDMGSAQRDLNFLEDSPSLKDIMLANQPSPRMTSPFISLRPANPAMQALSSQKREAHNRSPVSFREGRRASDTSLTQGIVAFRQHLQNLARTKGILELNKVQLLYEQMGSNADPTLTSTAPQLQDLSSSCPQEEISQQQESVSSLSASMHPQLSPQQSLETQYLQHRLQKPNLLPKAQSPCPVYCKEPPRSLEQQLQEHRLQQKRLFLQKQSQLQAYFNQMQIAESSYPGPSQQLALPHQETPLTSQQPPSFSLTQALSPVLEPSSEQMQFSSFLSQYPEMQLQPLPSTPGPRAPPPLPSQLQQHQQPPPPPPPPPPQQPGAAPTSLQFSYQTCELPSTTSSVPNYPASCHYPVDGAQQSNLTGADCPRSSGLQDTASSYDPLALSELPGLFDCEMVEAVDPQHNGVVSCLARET

[3] = biological target: Serine/threonine-protein kinase SIK3 (Homo sapiens, UniProt Q9Y2K2); experiment: Inhibition of SIK3 (unknown origin)
[4] = biological target: Serine/threonine-protein kinase SIK2 (Mus musculus) (UniProt Q8CFH6); experiment: Inhibition of SIK2 in C57BL/6J mouse BMDM cells assessed as increase in IL-10 mRNA level at 500 nM preincubated for 1 hr followed by LPS stimulation measured for 2 to 4 hrs by qPCR analysis; assay type: cell-based; conditions: time 3-5 hrs
[5] = biological target: Tyrosine-protein kinase BTK (Homo sapiens) (UniProt Q06187); experiment: Inhibition of BTK (unknown origin) at 1 uM
[6] = biological target: Cytoplasmic tyrosine-protein kinase BMX (Homo sapiens) (UniProt P51813); experiment: Inhibition of Bmx (unknown origin) at 1 uM
[7] = biological target: Protein-tyrosine kinase 6 (Homo sapiens) (UniProt Q13882); experiment: Inhibition of BRK (unknown origin) at 1 uM
[8] = biological target: Serine/threonine-protein kinase SIK2 (Mus musculus) (UniProt Q8CFH6); experiment: Inhibition of SIK2 in C57BL/6J mouse BMDM cells assessed as increase in IL-12 mRNA level at 500 nM preincubated for 1 hr followed by LPS stimulation measured after 8 hrs by qPCR analysis; assay type: cell-based; conditions: time 9.0 hrs
[9] = Half life in Sprague-Dawley rat at 10 mg/kg, po measured upto 24 hrs by LC/MS/MS analysis; assay type: ADME, organism-based; conditions: in vivo
[10] = Oral bioavailability in Sprague-Dawley rat at 10 mg/kg measured upto 24 hrs by LC/MS/MS analysis; assay type: ADME, organism-based; conditions: in vivo
[11] = Cmax in Sprague-Dawley rat at 5 mg/kg, iv measured upto 24 hrs by LC/MS/MS analysis; assay type: ADME, organism-based; set-up: dose 5 mg/kg, time < 24 hrs, route iv; conditions: in vivo
[12] = biological target: Serine/threonine-protein kinase SIK2 (Homo sapiens, UniProt Q9H0K1); experiment: Inhibition of SIK2 (unknown origin)
Sequence of Serine/threonine-protein kinase SIK2 (Q9H0K1 whole entry): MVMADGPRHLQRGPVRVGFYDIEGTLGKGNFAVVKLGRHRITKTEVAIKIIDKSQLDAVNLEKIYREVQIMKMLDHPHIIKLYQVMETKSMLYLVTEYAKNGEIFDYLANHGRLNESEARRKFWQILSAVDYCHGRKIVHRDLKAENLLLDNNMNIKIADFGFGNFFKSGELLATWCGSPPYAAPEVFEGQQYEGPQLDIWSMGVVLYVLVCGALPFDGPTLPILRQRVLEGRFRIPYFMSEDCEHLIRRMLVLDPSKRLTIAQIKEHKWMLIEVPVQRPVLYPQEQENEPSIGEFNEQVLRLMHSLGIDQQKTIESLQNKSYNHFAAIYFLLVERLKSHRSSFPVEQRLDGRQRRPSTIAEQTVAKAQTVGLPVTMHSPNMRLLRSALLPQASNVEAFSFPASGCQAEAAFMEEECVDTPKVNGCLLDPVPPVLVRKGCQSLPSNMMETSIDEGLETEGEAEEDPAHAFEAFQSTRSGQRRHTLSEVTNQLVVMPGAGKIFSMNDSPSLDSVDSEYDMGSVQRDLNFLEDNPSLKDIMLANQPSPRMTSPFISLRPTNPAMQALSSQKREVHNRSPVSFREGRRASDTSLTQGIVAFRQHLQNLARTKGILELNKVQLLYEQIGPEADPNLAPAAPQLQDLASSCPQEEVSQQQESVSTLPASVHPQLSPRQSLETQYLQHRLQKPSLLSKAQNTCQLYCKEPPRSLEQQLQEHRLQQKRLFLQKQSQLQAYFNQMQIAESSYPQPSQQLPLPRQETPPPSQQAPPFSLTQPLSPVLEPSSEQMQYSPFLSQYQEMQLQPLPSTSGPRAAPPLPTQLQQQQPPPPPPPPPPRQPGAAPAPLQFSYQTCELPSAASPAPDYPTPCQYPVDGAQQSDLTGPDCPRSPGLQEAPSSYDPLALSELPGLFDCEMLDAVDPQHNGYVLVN

[13] = biological target: Serine/threonine-protein kinase SIK2 (Mus musculus) (UniProt Q8CFH6); experiment: Inhibition of SIK2 in C57BL/6J mouse BMDM cells assessed as increase in c-FOS mRNA level at 500 nM preincubated for 1 hr followed by LPS stimulation measured for 1 hr by qPCR analysis; assay type: cell-based; conditions: time 2.0 hrs
[14] = biological target: Tyrosine-protein kinase Fgr (Homo sapiens) (UniProt P09769); experiment: Inhibition of Fgr (unknown origin) at 1 uM
BMDM [15] = experiment: Upregulation of CREB-dependent gene transcription in C57BL/6J mouse BMDM cells assessed as CRTC3 translocation to nucleus at 500 nM preincubated for 1 hr followed by LPS stimulation measured after 1 hr by immunofluorescence analysis; assay type: functional, cell-based; conditions: time 2.0 hrs
BMDM [16] = experiment: Anti-inflammatory activity against C57BL/6J mouse BMDM cells assessed as increase in IL-10 level at 500 nM preincubated for 1 hr followed by LPS stimulation measured after 2 to 8 hrs by ELISA method; assay type: functional, cell-based; conditions: time 3-9 hrs
Mus musculus [17] = experiment: Antiinflammatory activity in DSS-induced colitis C57BL/6J mouse model assessed as decrease in thickening of inherent base layer at 7.5 to 15 mg/kg, ip measured after 12 days by H&E staining based analysis; assay type: functional, organism-based; conditions: dose 7.5-15 mg/kg, time 12.0 day
BMDM [18] = experiment: Anti-inflammatory activity against C57BL/6J mouse BMDM cells assessed as decrease in IL-12 level at 500 nM preincubated for 1 hr followed by LPS stimulation measured after 4 to 8 hrs by ELISA method; assay type: functional, cell-based; conditions: time 5-9 hrs
[19] = biological target: Serine/threonine-protein kinase SIK2 (Mus musculus) (UniProt Q8CFH6); experiment: Inhibition of SIK2 in C57BL/6J mouse BMDM cells assessed as increase in Nurr77 mRNA level at 500 nM preincubated for 1 hr followed by LPS stimulation measured for 2 to 4 hrs by qPCR analysis; assay type: cell-based; conditions: time 3-5 hrs
[20] = biological target: Tyrosine-protein kinase Tec (Homo sapiens) (UniProt P42680); experiment: Inhibition of Tec (unknown origin) at 1 uM
[21] = Metabolic stability in human liver microsomes assessed as half life; assay type: ADME, Microsome
[22] = biological target: Tyrosine-protein kinase Fyn (Homo sapiens) (UniProt P06241); experiment: Inhibition of Fyn (unknown origin) at 1 uM
Sequence of Tyrosine-protein kinase Fyn (Homo sapiens) (P06241 2-537 limits assumed): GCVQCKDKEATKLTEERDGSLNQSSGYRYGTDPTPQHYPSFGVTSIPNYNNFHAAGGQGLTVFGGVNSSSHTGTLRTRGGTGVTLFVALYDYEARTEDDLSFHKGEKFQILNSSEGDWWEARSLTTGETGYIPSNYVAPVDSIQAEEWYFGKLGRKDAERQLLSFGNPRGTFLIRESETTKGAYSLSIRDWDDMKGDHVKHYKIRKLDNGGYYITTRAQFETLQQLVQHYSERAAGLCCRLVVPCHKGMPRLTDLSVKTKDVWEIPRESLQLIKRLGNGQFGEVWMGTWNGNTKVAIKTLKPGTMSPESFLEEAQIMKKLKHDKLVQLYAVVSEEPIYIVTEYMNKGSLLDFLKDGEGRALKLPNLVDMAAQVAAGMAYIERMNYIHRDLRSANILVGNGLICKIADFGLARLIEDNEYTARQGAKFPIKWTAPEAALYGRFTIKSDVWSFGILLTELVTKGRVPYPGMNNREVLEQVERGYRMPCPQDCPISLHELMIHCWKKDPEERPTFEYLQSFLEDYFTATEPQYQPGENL

[23] = Toxicity in DSS-induced colitis C57BL/6J mouse model at 30 mg/kg, ip; assay type: organism-based; conditions: in vivo
[24] = Clearance in Sprague-Dawley rat at 10 mg/kg, po measured upto 24 hrs by LC/MS/MS analysis; assay type: ADME, organism-based; conditions: in vivo
Mus musculus [25] = experiment: Antiinflammatory activity in DSS-induced colitis C57BL/6J mouse model assessed as increase in body weight at 7.5 to 30 mg/kg, ip; assay type: functional, organism-based; conditions: dose 7.5-30 mg/kg
[26] = biological target: Serine/threonine-protein kinase SIK2 (Mus musculus) (UniProt Q8CFH6); experiment: Inhibition of SIK2 in C57BL/6J mouse BMDM cells assessed as increase in SPHK1 mRNA level at 500 nM preincubated for 1 hr followed by LPS stimulation measured upto 8 hrs by qPCR analysis; assay type: cell-based; conditions: time <= 9.0 hrs
[27] = biological target: Tyrosine-protein kinase Lck (Homo sapiens) (UniProt P06239); experiment: Inhibition of LcK (unknown origin) at 1 uM
[28] = biological target: Serine/threonine-protein kinase SIK1 (Homo sapiens, UniProt P57059); experiment: Inhibition of SIK1 (unknown origin)
Sequence of Serine/threonine-protein kinase SIK1 (P57059 whole entry): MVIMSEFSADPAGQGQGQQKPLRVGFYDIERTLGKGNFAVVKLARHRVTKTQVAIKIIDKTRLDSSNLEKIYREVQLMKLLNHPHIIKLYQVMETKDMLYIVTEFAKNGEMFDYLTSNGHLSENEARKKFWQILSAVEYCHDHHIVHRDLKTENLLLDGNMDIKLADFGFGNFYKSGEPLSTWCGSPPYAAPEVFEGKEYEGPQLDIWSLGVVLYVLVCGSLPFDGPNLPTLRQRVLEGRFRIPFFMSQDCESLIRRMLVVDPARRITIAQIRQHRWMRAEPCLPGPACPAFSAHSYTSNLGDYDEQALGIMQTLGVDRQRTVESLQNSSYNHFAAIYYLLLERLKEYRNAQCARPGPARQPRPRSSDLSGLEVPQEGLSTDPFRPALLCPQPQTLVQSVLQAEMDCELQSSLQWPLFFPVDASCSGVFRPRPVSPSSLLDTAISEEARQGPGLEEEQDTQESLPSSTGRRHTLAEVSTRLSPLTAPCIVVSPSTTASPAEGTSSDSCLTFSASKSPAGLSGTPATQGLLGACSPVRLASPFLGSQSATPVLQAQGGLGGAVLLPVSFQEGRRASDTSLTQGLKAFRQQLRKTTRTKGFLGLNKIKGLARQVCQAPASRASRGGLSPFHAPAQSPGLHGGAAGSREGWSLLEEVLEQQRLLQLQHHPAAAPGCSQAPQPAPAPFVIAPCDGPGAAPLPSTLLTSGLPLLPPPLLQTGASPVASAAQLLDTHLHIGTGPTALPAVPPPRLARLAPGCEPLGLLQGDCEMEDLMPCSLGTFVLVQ

[29] = biological target: Tyrosine-protein kinase ABL2 (Homo sapiens) (UniProt P42684); experiment: Inhibition of ARG (unknown origin) at 1 uM
Sequence of Tyrosine-protein kinase ABL2 (Homo sapiens) (P42684 whole entry): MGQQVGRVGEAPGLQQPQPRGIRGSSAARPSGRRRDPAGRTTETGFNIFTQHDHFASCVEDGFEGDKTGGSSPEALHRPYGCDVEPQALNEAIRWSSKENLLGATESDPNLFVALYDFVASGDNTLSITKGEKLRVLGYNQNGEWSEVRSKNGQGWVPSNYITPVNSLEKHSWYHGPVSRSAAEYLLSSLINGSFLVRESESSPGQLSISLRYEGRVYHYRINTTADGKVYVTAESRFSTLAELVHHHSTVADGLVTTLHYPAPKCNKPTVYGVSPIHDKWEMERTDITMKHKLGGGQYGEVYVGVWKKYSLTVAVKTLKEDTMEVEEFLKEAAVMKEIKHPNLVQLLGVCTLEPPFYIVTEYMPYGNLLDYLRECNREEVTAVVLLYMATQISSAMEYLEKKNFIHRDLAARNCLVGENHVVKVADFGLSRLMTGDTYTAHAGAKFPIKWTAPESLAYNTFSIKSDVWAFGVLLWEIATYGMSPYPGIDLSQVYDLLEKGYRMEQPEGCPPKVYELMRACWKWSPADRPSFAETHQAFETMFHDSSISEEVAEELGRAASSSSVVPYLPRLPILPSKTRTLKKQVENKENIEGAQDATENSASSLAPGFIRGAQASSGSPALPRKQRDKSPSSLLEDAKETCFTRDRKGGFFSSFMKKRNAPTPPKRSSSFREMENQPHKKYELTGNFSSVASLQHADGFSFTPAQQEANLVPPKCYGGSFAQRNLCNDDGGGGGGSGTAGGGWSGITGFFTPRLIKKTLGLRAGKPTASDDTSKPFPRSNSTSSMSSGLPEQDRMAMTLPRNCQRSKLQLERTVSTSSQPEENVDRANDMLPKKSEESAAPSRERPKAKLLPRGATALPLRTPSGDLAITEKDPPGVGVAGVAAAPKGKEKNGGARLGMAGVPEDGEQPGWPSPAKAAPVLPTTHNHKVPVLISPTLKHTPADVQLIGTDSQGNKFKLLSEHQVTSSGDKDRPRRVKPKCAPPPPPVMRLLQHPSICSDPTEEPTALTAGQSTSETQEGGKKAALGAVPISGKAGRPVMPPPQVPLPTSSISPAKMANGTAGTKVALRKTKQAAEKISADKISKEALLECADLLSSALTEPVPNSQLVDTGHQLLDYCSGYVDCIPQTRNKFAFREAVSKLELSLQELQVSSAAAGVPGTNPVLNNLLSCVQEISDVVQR

[30] = biological target: Activated CDC42 kinase 1 (Homo sapiens) (UniProt Q07912); experiment: Inhibition of ACK1 (unknown origin) at 1 uM
[31] = Protein binding in human plasma at 10 uM measured for 8 hrs by dialysis method; assay type: ADME, cell-free; conditions: read-out: PPB (converted)
BMDM [32] = experiment: Effect on TLR-stimulated CREB phosphorylation at Ser133 residue in C57BL/6J mouse BMDM cells at 500 nM preincubated for 1 hr followed by LPS stimulation measured upto 60 mins by Western blot analysis; assay type: functional, cell-based; conditions: time 2.0 hrs
Mus musculus [33] = experiment: Antiinflammatory activity in DSS-induced colitis C57BL/6J mouse model assessed as increase in colon length at 50 to 100 mg/kg, po measured after 12 days; assay type: functional, organism-based; conditions: dose 50-100 mg/kg, time 12.0 day
[34] = AUC (0 to t) in Sprague-Dawley rat at 5 mg/kg, iv measured upto 24 hrs by LC/MS/MS analysis; assay type: ADME, organism-based; set-up: time < 24 hrs, dose 5 mg/kg, route iv; conditions: in vivo
[35] = biological target: Tyrosine-protein kinase FRK (Homo sapiens) (UniProt P42685); experiment: Inhibition of PTK5 (unknown origin) at 1 uM
Sequence of Tyrosine-protein kinase FRK (Homo sapiens) (P42685 whole entry): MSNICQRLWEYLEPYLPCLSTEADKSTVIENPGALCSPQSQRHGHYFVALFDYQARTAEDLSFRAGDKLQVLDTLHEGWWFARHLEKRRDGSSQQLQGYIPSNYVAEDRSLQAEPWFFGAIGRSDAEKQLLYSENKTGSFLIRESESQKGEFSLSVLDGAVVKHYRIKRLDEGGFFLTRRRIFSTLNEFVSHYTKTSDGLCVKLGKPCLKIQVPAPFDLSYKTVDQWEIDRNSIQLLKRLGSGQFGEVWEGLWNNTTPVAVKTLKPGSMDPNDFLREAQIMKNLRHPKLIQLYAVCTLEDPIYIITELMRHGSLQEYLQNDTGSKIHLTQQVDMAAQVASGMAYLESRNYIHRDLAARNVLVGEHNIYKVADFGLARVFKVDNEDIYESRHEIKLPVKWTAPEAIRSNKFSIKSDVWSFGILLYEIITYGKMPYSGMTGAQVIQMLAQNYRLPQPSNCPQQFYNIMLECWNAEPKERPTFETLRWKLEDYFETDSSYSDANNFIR

[36] = Tmax in Sprague-Dawley rat at 10 mg/kg, po measured upto 24 hrs by LC/MS/MS analysis; assay type: ADME, organism-based; conditions: in vivo
Mus musculus [37] = experiment: Antiinflammatory activity in DSS-induced colitis C57BL/6J mouse model assessed as increase in body weight at 50 to 100 mg/kg, po; assay type: functional, organism-based; conditions: dose 50-100 mg/kg

inhibition [2]: Active | IC50 [3]: 146 nM | inhibition [4]: inactive | inhibition [5]: Active | inhibition [6]: Active | inhibition [7]: Active | inhibition [8]: inactive | half-life [9]: 17.1 h | bioavailability [10]: 23% | Cmax [11]: 12000 ng/mL | IC50 [12]: 8 nM | inhibition [13]: Active | inhibition [14]: Active | inhibition [19]: inactive | inhibition [20]: Active | half-life [21]: > 2 h | inhibition [22]: Active | CL/F [24]: 11.7 mL/min/kg | inhibition [26]: Active | inhibition [27]: Active | IC50 [28]: 24 nM | inhibition [29]: Active | inhibition [30]: Active | fraction unbound at 8 h, 10 µM [31]: 0.206 | AUC(0-t) at 24 h [34]: 20300 ng·h/mL | inhibition [35]: Active | Tmax [36]: 8 h
Compound: Cc1cccc(F)c1NC(=O)c1cnc(Nc2ccc(N3CCN(C)CC3)c(F)c2)nc1NC1CCC1
Activity (Mus musculus [1]): Active | Activity (BMDM [15]): Active | Activity (BMDM [16]): Active | Activity (Mus musculus [17]): Active | Activity (BMDM [18]): inactive | Activity [23]: Toxic | Activity (Mus musculus [25]): Active | Activity (BMDM [32]): inactive | Activity (Mus musculus [33]): Active | Activity (Mus musculus [37]): Active
